Measurements as given in patent US20140248383A1, “SLEEP QUALITY IMPROVING AGENT” (LION CORPORATION, priority 2011, published 2014).

Test system: male C57BL/6 mice
Assay: Measurement of amount of activity of mice (sleep inducing effect)
Type: in vivo
Description: When a sample has the function of inducing sleep, the amount of activity always decreases after administration of the sample. Therefore, the sleep inducing effect of each sample was evaluated by determining whether or not the administration of the sample solution to a mouse caused a reduction in the amount of activity.
8-Week old or 9-week old male C57BL/6 mice were purchased from Japan SLC, Inc. and acclimatized for 3 to 6 days. The amount of activity during acclimatization was used to divide the mice into administration groups. Immediately before the onset of the dark period, Fraxinus excelsior L. extract was orally administered in an amount of 3 g/kg per body weight of a mouse (Example 1-1), or a 0.5% by mass aqueous methyl cellulose solution was orally administered in an amount of 10 mL/kg per body weight of a mouse (Comparative Example 1-1), and the amount of activity was measured for 24 hours after administration. Each administration group included 8 mice (n=8).
The amount of activity was measured under the following conditions. The mice were raised in individual cages, and an infrared camera was disposed above each cage. The imaging range of the infrared camera was divided into 64 sections, and the number of occurrences that the mouse crossed a section was measured. The number of occurrences was collected every 30 minutes. […]

`O=C1c2c(O)cc(O)cc2O[C@H](c2ccc(O)c(O)c2)[C@H]1O` [DIHYDROQUERCETIN, dihydroquercetin] was tested, and the “cumulative amount of activity 6 hours after administration” value (dihydroquercetin 2.7 g/kg oral immediately before dark period, n=4) was 4700 number of occurrences/6 hours and the “cumulative amount of activity 6 hours after administration compared to control solution” value (dihydroquercetin 2.7 g/kg oral, n=4, significant difference at p<0.01) was “significantly lower”.
